Series [1] is described as follows: Antiglycation activity assessed as inhibition of advanced glycation end product formation at 200 uM. The series is classed as physicochemical.
Series [2] addresses T1, Albumin (Bos taurus, UniProt P02769). As to the kind of experiment: Antiglycation activity in bovine serum albumin assessed as inhibition of fructosamines formation at 200 uM in presence of glucose. The settings on record: cattle.
The nature of series [3]: Antioxidant activity assessed as ABTS free radical scavenging activity.
Series [4] is described as follows: Antiglycation activity assessed as inhibition of advanced glycation end product formation. The series is classed as physicochemical.
The nature of series [5]: Antiglycation activity assessed as inhibition of Schiff-base formation at 200 uM. The series is classed as physicochemical.
The nature of series [6]: Antiglycation activity assessed as inhibition of Schiff-base formation. The series is classed as physicochemical.
Series [7] deals with T1, Albumin. As to the kind of experiment: Antiglycation activity in bovine serum albumin assessed as inhibition of fructosamines formation in presence of glucose.
Series [8] is described as follows: Antiglycation activity assessed as inhibition of dicarbonyl compounds formation at 200 uM. The series is classed as physicochemical.
Series [9] in a line: Antiglycation activity assessed as inhibition of dicarbonyl compounds formation. The series is classed as physicochemical.

The text below walks through data of ChEMBL document CHEMBL1806470, “Synthesis and antiglycation potentials of bergenin derivatives” (Bioorg Med Chem Lett, 2011).

T1 sequence (P02769 whole entry): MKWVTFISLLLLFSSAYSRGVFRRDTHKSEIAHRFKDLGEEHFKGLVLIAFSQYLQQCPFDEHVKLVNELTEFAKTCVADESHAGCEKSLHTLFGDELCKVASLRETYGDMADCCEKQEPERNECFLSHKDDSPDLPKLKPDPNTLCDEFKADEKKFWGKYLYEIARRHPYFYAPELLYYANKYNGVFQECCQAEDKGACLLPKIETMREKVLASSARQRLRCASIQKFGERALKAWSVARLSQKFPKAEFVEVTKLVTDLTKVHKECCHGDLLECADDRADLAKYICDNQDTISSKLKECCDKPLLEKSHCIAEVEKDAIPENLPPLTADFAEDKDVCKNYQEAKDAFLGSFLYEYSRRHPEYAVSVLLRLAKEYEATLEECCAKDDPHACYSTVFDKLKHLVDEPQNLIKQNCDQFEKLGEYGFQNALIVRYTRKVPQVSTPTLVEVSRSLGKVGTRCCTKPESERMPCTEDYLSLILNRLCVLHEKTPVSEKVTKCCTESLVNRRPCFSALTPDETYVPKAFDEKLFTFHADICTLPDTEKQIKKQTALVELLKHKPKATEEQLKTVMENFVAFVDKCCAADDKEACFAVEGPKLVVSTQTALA

In general, IC50 refers to the concentration at which inhibition is half-maximal. Regarding `COc1c(O)cc2c(c1O)[C@@H]1O[C@H](COC(=O)/C=C/c3ccccc3)[C@@H](O)[C@H](O)[C@H]1OC2=O`, the “inhibition (INH)” value (in [1]; on Albumin [2] (200 µM)) was “Not Active” in each case. Also, the IC50 in series [3] was determined as 3 µM.

One may read the inhibition as the change of the read-out against control, counted positive when it falls. For the molecule `COc1c(O)cc2c(c1O)[C@@H]1O[C@H](COC(=O)c3ccccc3)[C@@H](O)[C@H](O)[C@H]1OC2=O`, in series [1], the “inhibition (INH)” value was “Not Active”. On Albumin [2], the inhibition at 200 µM was 49.2%. In series [3], the IC50 worked out at 3.5 µM.

For the molecule `COc1c(O)cc2c(c1O)[C@@H]1O[C@H](COC(=O)c3ccc([N+](=O)[O-])cc3)[C@@H](O)[C@H](O)[C@H]1OC2=O`, the “inhibition (INH)” value in [1] is reported as “Not Active”. The inhibition at 200 µM on Albumin [2] was 21.4%. Further, the IC50 in series [3] turned out to be 3.6 µM.

`N=C(N)NN` [PIMAGEDINE]: the “inhibition (INH)” value in [1] is reported as 79.67%. In series [4], the IC50 stood at 88.9 µM.

As for `COc1c(O)cc2c(c1O)[C@@H]1O[C@H](COC(=O)c3cc(O)c(O)c(O)c3)[C@@H](O)[C@H](O)[C@H]1OC2=O`, the results for the “inhibition (INH)” value in series [1], in [5] and in series [8] were 83.62%, 95.96% and 102.22%, respectively. In addition, the inhibition at 200 µM on Albumin [2] was determined as 22.2%. Also, the IC50 was determined as 9.06 µM in [6], 1.5 µM in [3], 184 µM on Albumin [7] and 12.3 µM in series [4].

Regarding `COc1ccc(C(=O)OC[C@H]2O[C@H]3c4c(cc(O)c(OC)c4O)C(=O)O[C@@H]3[C@@H](O)[C@@H]2O)c([N+](=O)[O-])c1`, the “inhibition (INH)” value in [1] is reported as “Not Active”. Further, at Albumin [2], the inhibition at 200 µM was found to be 17.5%. In addition, in series [3], the IC50 was determined as 4.4 µM.

For the molecule `COc1cc(C(=O)OC[C@H]2O[C@H]3c4c(cc(O)c(OC)c4O)C(=O)O[C@@H]3[C@@H](O)[C@@H]2O)cc(OC)c1OC`, the “inhibition (INH)” value in series [1] is recorded as “Not Active”. The inhibition at 200 µM on Albumin [2] is 42.1%. Further, the IC50 in series [3] was 3.2 µM.

In the case of `COc1cc(C(=O)OC[C@H]2O[C@H]3c4c(cc(O)c(OC)c4O)C(=O)O[C@@H]3[C@@H](O)[C@@H]2O)ccc1O`, the “inhibition (INH)” value in [1] was “Not Active”. Besides, on Albumin [2], the inhibition at 200 µM came out at 36.5%. In series [3], the IC50 was found to be 4.2 µM.

Regarding `COc1c(O)cc2c(c1O)[C@@H]1O[C@H](COC(=O)c3cccc(O)c3O)[C@@H](O)[C@H](O)[C@H]1OC2=O`, the results for the “inhibition (INH)” value in [1], in [5] and in series [8] were 93.27%, 97.86% and 97.77%, respectively. Moreover, at Albumin [2], the inhibition at 200 µM was found to be 26.2%. Further, the IC50 in series [6] was found to be 76 µM; in series [3] it was 1.7 µM; at Albumin [7], 322 µM; in [4], 60.8 µM; in series [9], 8.95 µM.

On to `COc1c(O)cc2c(c1O)[C@@H]1O[C@H](CO)[C@@H](O)[C@H](O)[C@H]1OC2=O` [BERGENIN], for which the “inhibition (INH)” value in series [1] is listed as 75.69%; in series [5], 109.4%; in series [8], 102.66%. Besides, the inhibition at 200 µM on Albumin [2] amounted to 20.6%. In addition, the concentration for half-maximal inhibition (IC50) was 0.00054 µM in series [6], 2 µM in [3], 164 µM at Albumin [7] and 187 µM in series [4].
